# Reference: publication PMC7647782, “Cytotoxic, Antioxidant, and Metabolic Enzyme Inhibitory Activities of Euphorbia cyparissias Extracts” (Oxidative Medicine and Cellular Longevity, 2020)
# Biological target: DrPLA2-IB (Camelus dromedarius, UniProt A0A5N4C9D4)
# Assay: Phospholipase activity inhibition, dromedary PLA2-IB
# Format: biochemical
# Method: Dromedary (DrPlA2-IB), porcine (PPPlA2-IB), and stingray group IB phospholipases (SPLA2-IB) were purified and prepared as described in our previous works and De Haas et al., respectively. Dromedary (DrPL), stingray (SPL), and porcine (PPL) lipases were also purified according to protocols optimized in previous works. The enzymes β-glucosidase, α-amylase, and XO were purchased from Sigma-Aldrich (St. Louis, MO, USA).
# The phospholipase activities were measured based on the De Araújo and Radvanyi method. The inhibitory effect of various extracts was determined using samples of dromedary, stingray, and porcine digestive group IB phospholipases (PLA2-IB). A 10 μL sample of ethanolic or aqueous extract was mixed with 10 μL of PLA2-GIB and preincubated for 20 min at room temperature. The mixture was added to 1 mL of the substrate, which was composed of lecithin (3.5 mM) solubilized in 100 mM NaCl, 3 mM sodium taurodeoxycholate, 10 mM CaCl2, and 0.055 mM red phenol at a pH of 7.6. The activity was verified by measuring spectrophotometrically the absorbance at 558 nm for 5 min. The inhibition percentage was calculated by measuring residual activity compared to negative control assay (absence of extract). The IC50 values were determined from the curve.
# The activities of these enzymes were measured using the pH-stat technique on olive oil emulsion at optimal conditions for enzyme activity. […]
# DrPLA2-IB, sequence (A0A5N4C9D4 23-145): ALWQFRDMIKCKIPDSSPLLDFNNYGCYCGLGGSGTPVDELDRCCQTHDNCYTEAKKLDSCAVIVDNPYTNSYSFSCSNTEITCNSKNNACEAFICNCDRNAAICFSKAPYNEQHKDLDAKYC
compound,measurement,value
"CC1(C)CC[C@]2(C(=O)O)CC[C@]3(C)C(=CC[C@@H]4[C@@]5(C)CC[C@H](O)C(C)(C)[C@@H]5CC[C@]43C)[C@@H]2C1 [Oleanolic acid, oleanolic acid]",IC50,174 µM
